Structures can show the parent of a compound that is named as a salt.
Tested on: human Fab of κ-type
Assay: STD-NMR binding test (saturation transfer difference NMR screening)
Parameters: key to NMR signal, conc 1 / NMR signal, conc 2 / NMR signal, conc 3 / NMR signal, Conc 1 (directed library) / NMR signal, Conc 2 (directed library): 0 no; 1 weak; 2 strong signal
Settings: for NMR signal, conc 1: 500 nM protein; for NMR signal, conc 1 / NMR signal, conc 2: 0.5 mM ligand; for NMR signal, conc 2: 100 nM protein; for NMR signal, Conc 2 (directed library): 100 nM antibody; for NMR signal, Conc 1 (directed library): 500 nM antibody; for interaction with the antibody in NMR screening of directed library: two higher antibody concentrations
Description: All NMR experiments were performed at 298 K on a Bruker Avance 500 MHz spectrometer. The 1D saturation transfer difference method (STD-NMR) was used as screening assay (Mayer M. and Meyer B. 1999. Characterisation of Ligand Binding by Saturation Transfer Difference NMR Spectroscopy. Angew. Chem., Int. Ed. 38: 1784-1788). […] The two spectra are recorded in the same experiment in an interleaved fashion. […] It has been shown that the method is capable of detecting ligands with dissociation constants between 10^−3 and 10^−8 M (Mayer M. and Meyer B. 1999. Characterisation of Ligand Binding by Saturation Transfer Difference NMR Spectroscopy. Angew. Chem, Int. Ed. 38: 1784-1788). The strength of the STD-NMR signal depends upon several factors including protein size, offset and duration of the on-resonance irradiation, the dissociation rate constant and the excess of ligand. The STD-NMR method is advantageous in that the detection limits can be tuned for binding by varying the protein concentration while keeping the ligand concentration constant. Under such conditions, at higher protein concentrations the weak to medium binders are detected, whereas at lower protein concentrations only medium binders are detected. For instance, it has been shown before for another enzyme system that both μM and mM binders were detected at a protein concentration of 35 μM whereas only μM binders were detected at protein concentrations of 1 μM and 100 nM (Peng J. W., Lepre C. A., Fejzo J., Abdul-Manan N. and Moore J. M. 2001, Nuclear Magnetic Resonance-Based Approaches for Lead Generation in Drug Discovery, Methods in Enzymology. 338: 202-230). It should be noted that the signal intensity at one specific protein concentration should not be taken as a direct measure of the binding strength. […] On the other hand the signal of the μM binder became even stronger than before (Peng J. W., Lepre C. A., Fejzo J., Abdul-Manan N. and Moore J. M. 2001, Nuclear Magnetic Resonance-Based Approaches for Lead Generation in Drug Discovery, Methods in Enzymology. 338: 202-230).
Here, three different antibody concentrations were used, namely, 0.5 μM, 100 nM and 20 nM. The antibody used was a human Fab of κ-type. In all cases ligands were tested one-by-one. On-resonance irradiation was set at 0 ppm and off-resonance irradiation was set at 40 ppm. Irradiation time in each scan was 2 s and 16K data points were collected with 1024 scans in total. Compounds for testing were dissolved in DMSOd6 to a concentration of 50 mM and 5 μL of the concentrated ligand solution was added to 495 μL buffer solution. The samples thus consisted of 0.5 mM ligand, 20 mM phosphate buffer, 100 mM NaCl and […] in D2O at pD 7.5, uncorrected reading on pH-meter. Compounds were initially tested for binding with 0.5 μM antibody. Interesting ligands were further tested with protein concentrations of 100 or 20 nM. A one-dimensional ^1H-spectrum was acquired first as reference spectrum and subsequently a saturation transfer difference (STD) spectrum was acquired. Each analysis took 60 minutes on the spectrometer.

Compound | NMR signal, conc 1 | NMR signal, conc 2 | further results
CC1=NN(c2cccc(Cl)c2)C(=O)C1 [AB_0000530, 1-(3-chlorophenyl)-3-methyl-2-pyrazolin-5-one] | 0 | – | –
Clc1ccc(COn2ccnc2)cc1Cl [AB_0001150, 1-[(3,4-dichlorobenzyl)oxy]-1h-imidazole] | 2 | 0 | –
N=c1sccn1CC(=O)c1ccc2ccccc2c1 [AB_0001060, 2-(2-imino-thiazol-3-yl)-1-naphthalen-2-yl-ethanone] | 2 | 0 | –
CC1(C)CC(=O)c2sc(NC(=O)c3cccnc3)nc2C1 [AB_0000750, n-(5,5-dimethyl-7-oxo-4,5,6,7-tetrahydro-benzothiazol-2-yl)-nicotinamide] | 0 | – | –
O=C1SC(Br)C(=O)N1c1ccccc1 (centres unmarked) [AB_0000880, 5-bromo-3-phenyl-thiazolidine-2,4-dione] | 0 | – | –
COC(=O)[C@H]1CCCN1C(=O)N(C)c1ccc(Cl)c(Cl)c1 (single isomer, unassigned) [AB_0003290, 1-[(3,4-Dichloro-phenyl)-methyl-carbamoyl]-pyrrolidine-2-carboxylic acid methyl ester (R-isomer)] | – | – | NMR signal, Conc 2 (directed library): 2; NMR signal, Conc 1 (directed library): 2
OC(CNCc1ccc(Cl)cc1Cl)C(F)(F)F (centres unmarked) [AB_0001170, 3-[(2,4-dichlorobenzyl)amino]-1,1,1-trifluoro-2-propanol] | 0 | – | –
Sc1nnc(-c2csc(-c3ccccc3)n2)o1 [AB_0000760, 5-(2-phenyl-1,3-thiazol-4-yl)-1,3,4-oxadiazol-2-ylhydrosulfide] | 1 | 0 | –
O=C1c2ccncc2C(=O)N1c1ccc(Cl)cc1 [AB_0000610, 2-(4-chlorophenyl)-2,3-dihydro-1h-pyrrolo[3,4-c]pyridine-1,3-dione] | 0 | – | –
CCn1ccnc1CC1COc2ccccc2O1 (centres unmarked) [AB_0001070, imiloxan hydrochloride] | 1 | 1 | –
c1ccc(CCn2cc(-c3ccncc3)cn2)cc1 [AB_0001190, 4-[1-(2-phenylethyl)-(1h)-pyrazol-4-yl]pyridine] | 2 | 0 | –
Cc1cc(C)nc(SCC(=O)Nc2ccc(F)c(Cl)c2)n1 [AB_0000580, n1-(3-chloro-4-fluorophenyl)-2-[(4,6-dimethylpyrimidin-2-yl)thio]acetamide] | 1 | 0 | –
Fc1cc(F)cc(Cc2nc(-c3cccs3)no2)c1 [AB_0001020, 5-(3,5-difluorobenzyl)-3-(2-thienyl)-1,2,4-oxadiazole] | 1 | 0 | –
O=C1C(=Cc2ccccc2)C(=O)c2ccccc21 [AB_0000730, 2-benzylidene-1,3-indandione] | 0 | – | –
O=C(COc1ccc2ccccc2c1)ON1C(=O)CCC1=O [AB_0001230, (2-naphthoxy)acetic acid, n-hydroxysuccinimide ester] | 0 | – | –
c1ccc(-c2nnc(-c3ccccn3)nn2)nc1 [AB_0000700, 3,6-di-2-pyridyl-1,2,4,5-tetrazine] | 0 | – | –
OC(CNCc1ccc(Cl)cc1)CSc1ccccc1 (centres unmarked) [AB_0001270, 1-[(4-chlorobenzyl)amino]-3-(phenylthio)propan-2-ol] | 1 | 0 | –
O=C(CC1OC(=O)c2ccccc21)c1ccccn1 (centres unmarked) [AB_0000790, 3-[2-oxo-2-(2-pyridyl)ethyl]-1,3-dihydroisobenzofuran-1-one] | 0 | – | –
CC1CN=C(SCc2ccccc2)N1.Cl (centres unmarked) [AB_0001080, 2-(benzylthio)-5-methyl-4,5-dihydro-1h-imidazol-3-ium chloride] | 0 | – | –
O=C(c1cccs1)c1cnc2ccccn2c1=O [AB_0001300, 3-(2-thienylcarbonyl)-4h-pyrido[1,2-a]pyrimidin-4-one] | 1 | 0 | –

Compound | NMR signal, conc 1 | NMR signal, conc 2 | further results
COC(=O)CCCN(C)C(=O)N(C)c1ccc(Cl)c(Cl)c1 [AB_0001255, 4-[3-(3,4-Dichloro-phenyl)-1,3-dimethyl-ureido]-butyric acid methyl ester] | – | – | NMR signal, Conc 2 (directed library): 2; NMR signal, Conc 1 (directed library): 2; interaction with the antibody in NMR screening of directed library: strongest binding
S=C(Oc1ccccn1)c1csc(C2COc3ccccc3O2)n1 (centres unmarked) [AB_0001260, 2-pyridyl 2-(2,3-dihydro-1,4-benzodioxin-2-yl)-1,3-thiazole-4-carbothioate] | 0 | – | –
O=C1C=C(Cl)C(=O)N1c1ccccc1 [AB_0000930, 3-chloro-1-phenyl-pyrrole-2,5-dione] | 0 | – | –
CCCCc1c(O)nc2ccccn2c1=O [AB_0000990, 3-butyl-2-hydroxy-4h-pyrido[1,2-a]pyrimidin-4-one] | 0 | – | –
COC(=O)CCCN(C)C(=O)N(C)c1ccc(F)c(F)c1 [AB_0001258, 4-[3-(3,4-Difluoro-phenyl)-1,3-dimethyl-ureido]-butyric acid methyl ester] | – | – | NMR signal, Conc 2 (directed library): 1; NMR signal, Conc 1 (directed library): 1
OC(CNCc1ccccc1)C(F)(F)F (centres unmarked) [AB_0001000, 3-(benzylamino)-1,1,1-trifluoro-2-propanol] | 1 | 0 | –
COC(=O)CCCN(C)C(=O)N(C)c1ccc(OC)c(F)c1 [AB_0001252, 4-[3-(3-Fluoro-4-methoxy-phenyl)-1,3-dimethyl-ureido]-butyric acid methyl ester] | – | – | NMR signal, Conc 2 (directed library): 1; NMR signal, Conc 1 (directed library): 1
O=C(Cc1ncon1)Nc1ccc(F)cc1F [AB_0000690, n1-(2,4-difluorophenyl)-2-(1,2,4-oxadiazol-3-yl)acetamide] | 0 | – | –
O=C1C(=O)N(c2ccccc2)C(=O)N1c1ccccc1 [AB_0000540, 1,3-diphenylparabanic acid] | 0 | – | –
COC(=O)CCCNC(=O)N(C)c1ccc(Cl)c(Cl)c1 [AB_0001257, 4-[3-(3,4-Dichloro-phenyl)-3-methyl-ureido]-butyric acid methyl ester] | – | – | NMR signal, Conc 2 (directed library): 0; NMR signal, Conc 1 (directed library): 2
O=C(c1ccc2ccccc2c1)n1ccnc1 [AB_0000900, 1-(2-naphthoyl)imidazole] | 0 | – | –
O=C(O)c1ccnn(-c2ccccc2)c1=O [AB_0001180, 3-oxo-2-phenyl-2,3-dihydro-4-pyridazinecarboxylic acid] | 0 | – | –
O=C(c1ccccn1)C(O)c1ccccn1 (stereo not drawn) [AB_0000510, alpha-pyridoin] | 0 | – | –
O=Cc1cccc(C(F)(F)F)c1Cl [AB_0001030, 2-chloro-3-(trifluoromethyl)benzaldehyde] | 1 | 0 | –
COC(=O)CCCN(C)C(=O)N(C)c1ccccc1 [AB_0001251, 4-(1,3-Dimethyl-3-phenyl-ureido)-butyric acid methyl ester] | – | – | NMR signal, Conc 2 (directed library): 0; NMR signal, Conc 1 (directed library): 0; interaction with the antibody in NMR screening of directed library: negative result
CCOC(=O)c1c[nH]c2ccccc2c1=O [AB_0001100, ethyl 4-oxo-1,4-dihydroquinoline-3-carboxylate] | 0 | – | –
O=C(Cc1ncon1)Nc1ccc(F)c(F)c1F [AB_0000630, n1-(2,3,4-trifluorophenyl)-2-(1,2,4-oxadiazol-3-yl)acetamide] | 0 | – | –
FC(F)(F)c1cccc(-n2ccnc2)c1 [AB_0001220, 1-(3-trifluoromethylphenyl)imidazole] | 2 | 0 | –
COC(=O)c1ccc2ccccc2c1O [AB_0001200, methyl 1-hydroxy-2-naphthoate] | 1 | 0 | –
O=C1C=CC(=O)N1c1cccc(Cl)c1 [AB_0001090, n-(3-chlorophenyl)-maleimide] | 1 | 0 | –

From patent US7645903B2, “Use of urea variants as affinity ligands” (GE Healthcare Bio-Sciences AB, priority 2002, dated 2010)
